Data taken from article PMC5650337, “A peptidomimetic with a chiral switch is an inhibitor of epidermal growth factor receptor heterodimerization” (Oncotarget, 2017).
Where two headings read alike, the source gives them in different places. Where a SMILES comes first, the peptide text is derived from it.

What was measured:
[1] = system: MCF-10A normal breast epithelial cell line; test: Antiproliferative activity (CellTiter-Glo); type: cell-based
Source text: (§1) Erlotinib was from Sigma (Sigma-Aldrich Chemie GmbH).

MCF-7 cells = test: Antiproliferative activity (CellTiter-Glo); type: cell-based
Source text: as §1

EGFR = molecular target: T1, EGFR (Homo sapiens, UniProt P00533); test: Surface plasmon resonance analysis; type: binding; details: data not shown
T1 construct: Extracellular domains of proteins HER2, EGFR, HER3, and HER4 purchased from Leinco Technologies; purchased Leinco Technologies (St. Louis, MO)
Protocol: (§2) Surface plasmon resonance analysis was performed using GE X100. Extracellular domains of proteins HER2, EGFR, HER3, and HER4 purchased from Leinco Technologies (St. Louis, MO). […] Compound 18 and controls were used as analytes. Compound 18 at different concentrations (0 to 200 µM) was passed through an SPR chip, and binding kinetics were analyzed for each of the EGFR bindings. A blank subtracted sensorgram for compound 18 was represented.

[2] = molecular target: T2, HER2 ECD (domains I to IV) (Homo sapiens, UniProt P04626); test: Surface plasmon resonance analysis; type: binding
T2 construct: Extracellular domains of proteins HER2, EGFR, HER3, and HER4 purchased from Leinco Technologies; purchased Leinco Technologies (St. Louis, MO)
Protocol: as §2

HER3 = molecular target: T3, HER3 (Homo sapiens, UniProt P21860); test: Surface plasmon resonance analysis; type: binding; details: data not shown
T3 construct: Extracellular domains of proteins HER2, EGFR, HER3, and HER4 purchased from Leinco Technologies; purchased Leinco Technologies (St. Louis, MO)
Protocol: as §2

HER4 = molecular target: T4, HER4 (Homo sapiens, UniProt Q15303); test: Surface plasmon resonance analysis; type: binding; details: data not shown
T4 construct: Extracellular domains of proteins HER2, EGFR, HER3, and HER4 purchased from Leinco Technologies; purchased Leinco Technologies (St. Louis, MO)
Protocol: as §2

domain IV of HER2 = domain IV of HER2 (Homo sapiens, UniProt P04626); test: Surface plasmon resonance analysis; type: binding; details: protein immobilized on CM5 chip
Protocol: as §2

[3] = molecular target: T5, EGFR:HER2 heterodimer in SKBR-3 cells (Homo sapiens, UniProt P04626); test: Proximity ligation assay (PLA); type: cell-based; details: 0.5 and 1 µM
T5 construct: we probed for HER2:EGFR dimers with PLA probes in SKBR-3 cells; host or cells: SKBR-3
Protocol: (§3) Proximity ligation assay was performed as described previously. […] Fixed cells were used for PLA assay. Cells were incubated with primary antibodies for 24 h and washed, and secondary antibodies PLA+ and PLA− were added. After incubation and washing, PLA detection reagent was added, and the cells were covered with a glass plate after mounting medium was added. Slides were viewed using an inverted microscope and a multiphoton microscope. Images were obtained at 40 and 60X.

[4] = molecular target: T6, HER2:HER3 heterodimer in SKBR-3 cells (Homo sapiens, UniProt P04626); test: Proximity ligation assay (PLA); type: cell-based; details: 0.5 and 1 µM
T6 construct: indicating HER2:HER3 dimerization in SKBR-3 cells; host or cells: SKBR-3
Protocol: as §3

SKOV-3 cells = details: read-out: IC50 SKOV-3(+); HER2-overexpressing ovarian cancer cells, 72 h
Protocol: Cellular assays were performed using BT-474, SKBR-3, Calu-3, MCF-7, and MCF-10A cells (ATCC). Antiproliferative activity was measured by CellTiter-Glo®, [49] a luminescence-based cell viability assay. In a 96-well plate, 1 × 10^4 cells/well were seeded and incubated overnight at 37°C and 5% CO2. Stock solutions of peptidomimetics were prepared by dissolving 1.5 mg/mL of compounds in DMSO. Stock solution of the compounds were diluted using the serum-free medium to prepare solutions of different concentrations of compounds. Compounds in the medium were added to the wells in triplicate and incubated for 72 h. As controls, cells treated with 1% sodium dodecyl sulfate and 1% dimethyl sulfoxide were used. At the end of the experiment, CellTiter-Glo® reagent was added, and luminescence was measured by a plate reader. A dose response curve was generated using luminescence vs concentration of compounds and IC50 values were obtained using Prism® (GraphPad Software, La Jolla, CA). Experiments were repeated at least three times to obtain standard deviation values.

T2 sequence (P04626 23-652 limits assumed): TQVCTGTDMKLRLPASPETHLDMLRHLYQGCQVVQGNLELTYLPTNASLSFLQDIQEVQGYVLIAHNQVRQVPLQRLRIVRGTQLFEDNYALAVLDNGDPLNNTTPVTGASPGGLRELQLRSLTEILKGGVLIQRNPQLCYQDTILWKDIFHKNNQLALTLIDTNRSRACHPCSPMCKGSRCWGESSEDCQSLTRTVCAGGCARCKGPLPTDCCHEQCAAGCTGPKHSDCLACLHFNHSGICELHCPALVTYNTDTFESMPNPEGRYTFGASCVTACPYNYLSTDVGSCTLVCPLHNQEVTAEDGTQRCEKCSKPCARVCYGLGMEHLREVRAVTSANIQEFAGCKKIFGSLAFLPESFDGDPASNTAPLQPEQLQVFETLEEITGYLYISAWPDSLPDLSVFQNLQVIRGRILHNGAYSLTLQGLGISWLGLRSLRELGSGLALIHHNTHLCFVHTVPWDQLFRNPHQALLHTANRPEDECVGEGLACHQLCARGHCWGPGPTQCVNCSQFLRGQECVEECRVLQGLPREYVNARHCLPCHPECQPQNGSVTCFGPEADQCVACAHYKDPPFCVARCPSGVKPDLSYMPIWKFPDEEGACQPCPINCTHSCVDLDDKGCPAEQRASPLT
T4 sequence (Q15303 26-651 limits assumed): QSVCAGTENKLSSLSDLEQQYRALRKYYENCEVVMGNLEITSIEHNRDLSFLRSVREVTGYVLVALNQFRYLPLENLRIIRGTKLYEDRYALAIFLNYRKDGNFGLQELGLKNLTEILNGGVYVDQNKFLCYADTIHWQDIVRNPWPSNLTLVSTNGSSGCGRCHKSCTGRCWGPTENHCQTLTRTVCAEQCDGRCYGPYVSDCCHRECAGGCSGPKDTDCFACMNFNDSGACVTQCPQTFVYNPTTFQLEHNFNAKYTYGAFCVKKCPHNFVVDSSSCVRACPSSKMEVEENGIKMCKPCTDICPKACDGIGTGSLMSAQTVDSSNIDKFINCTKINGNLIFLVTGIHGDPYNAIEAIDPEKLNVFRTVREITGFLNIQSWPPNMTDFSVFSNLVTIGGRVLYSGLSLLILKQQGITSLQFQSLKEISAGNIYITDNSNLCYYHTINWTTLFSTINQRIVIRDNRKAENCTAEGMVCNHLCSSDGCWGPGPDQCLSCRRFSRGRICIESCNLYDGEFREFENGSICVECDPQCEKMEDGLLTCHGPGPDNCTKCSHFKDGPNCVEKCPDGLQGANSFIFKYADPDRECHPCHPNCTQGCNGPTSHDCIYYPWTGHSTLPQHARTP
T1 sequence (P00533 25-645 limits assumed): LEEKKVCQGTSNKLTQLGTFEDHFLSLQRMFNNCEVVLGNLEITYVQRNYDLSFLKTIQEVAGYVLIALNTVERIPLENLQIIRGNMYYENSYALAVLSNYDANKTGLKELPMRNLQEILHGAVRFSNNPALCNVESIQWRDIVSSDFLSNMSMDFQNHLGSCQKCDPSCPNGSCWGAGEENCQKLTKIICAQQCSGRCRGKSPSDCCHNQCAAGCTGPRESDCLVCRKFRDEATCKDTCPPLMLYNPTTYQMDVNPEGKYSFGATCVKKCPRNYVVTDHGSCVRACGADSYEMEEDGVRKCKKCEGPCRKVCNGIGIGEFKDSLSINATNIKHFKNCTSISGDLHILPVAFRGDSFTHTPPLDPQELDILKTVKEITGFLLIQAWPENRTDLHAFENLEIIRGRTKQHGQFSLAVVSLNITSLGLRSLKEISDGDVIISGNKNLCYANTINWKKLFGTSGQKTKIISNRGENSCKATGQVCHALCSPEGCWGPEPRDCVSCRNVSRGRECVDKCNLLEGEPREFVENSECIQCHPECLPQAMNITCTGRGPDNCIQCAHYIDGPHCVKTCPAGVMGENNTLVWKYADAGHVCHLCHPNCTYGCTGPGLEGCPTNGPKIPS
T3 sequence (P21860 20-643 limits assumed): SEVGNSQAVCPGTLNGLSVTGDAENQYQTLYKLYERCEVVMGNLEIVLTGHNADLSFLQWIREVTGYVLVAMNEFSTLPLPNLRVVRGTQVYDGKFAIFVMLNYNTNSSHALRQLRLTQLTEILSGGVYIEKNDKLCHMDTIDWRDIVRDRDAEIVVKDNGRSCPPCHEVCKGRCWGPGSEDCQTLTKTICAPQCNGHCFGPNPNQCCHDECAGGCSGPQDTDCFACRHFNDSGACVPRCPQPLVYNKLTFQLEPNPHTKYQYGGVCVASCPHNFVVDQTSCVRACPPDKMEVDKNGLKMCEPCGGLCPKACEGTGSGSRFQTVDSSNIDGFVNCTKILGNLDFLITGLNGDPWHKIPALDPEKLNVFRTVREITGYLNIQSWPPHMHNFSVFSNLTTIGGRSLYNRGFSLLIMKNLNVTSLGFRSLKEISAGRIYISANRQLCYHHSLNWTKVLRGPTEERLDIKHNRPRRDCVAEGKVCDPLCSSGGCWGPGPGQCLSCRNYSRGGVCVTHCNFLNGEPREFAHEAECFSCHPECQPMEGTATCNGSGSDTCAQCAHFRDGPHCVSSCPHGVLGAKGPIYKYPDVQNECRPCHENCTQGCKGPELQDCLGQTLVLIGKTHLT
T6 sequence (P04626 23-1255, one chain of several): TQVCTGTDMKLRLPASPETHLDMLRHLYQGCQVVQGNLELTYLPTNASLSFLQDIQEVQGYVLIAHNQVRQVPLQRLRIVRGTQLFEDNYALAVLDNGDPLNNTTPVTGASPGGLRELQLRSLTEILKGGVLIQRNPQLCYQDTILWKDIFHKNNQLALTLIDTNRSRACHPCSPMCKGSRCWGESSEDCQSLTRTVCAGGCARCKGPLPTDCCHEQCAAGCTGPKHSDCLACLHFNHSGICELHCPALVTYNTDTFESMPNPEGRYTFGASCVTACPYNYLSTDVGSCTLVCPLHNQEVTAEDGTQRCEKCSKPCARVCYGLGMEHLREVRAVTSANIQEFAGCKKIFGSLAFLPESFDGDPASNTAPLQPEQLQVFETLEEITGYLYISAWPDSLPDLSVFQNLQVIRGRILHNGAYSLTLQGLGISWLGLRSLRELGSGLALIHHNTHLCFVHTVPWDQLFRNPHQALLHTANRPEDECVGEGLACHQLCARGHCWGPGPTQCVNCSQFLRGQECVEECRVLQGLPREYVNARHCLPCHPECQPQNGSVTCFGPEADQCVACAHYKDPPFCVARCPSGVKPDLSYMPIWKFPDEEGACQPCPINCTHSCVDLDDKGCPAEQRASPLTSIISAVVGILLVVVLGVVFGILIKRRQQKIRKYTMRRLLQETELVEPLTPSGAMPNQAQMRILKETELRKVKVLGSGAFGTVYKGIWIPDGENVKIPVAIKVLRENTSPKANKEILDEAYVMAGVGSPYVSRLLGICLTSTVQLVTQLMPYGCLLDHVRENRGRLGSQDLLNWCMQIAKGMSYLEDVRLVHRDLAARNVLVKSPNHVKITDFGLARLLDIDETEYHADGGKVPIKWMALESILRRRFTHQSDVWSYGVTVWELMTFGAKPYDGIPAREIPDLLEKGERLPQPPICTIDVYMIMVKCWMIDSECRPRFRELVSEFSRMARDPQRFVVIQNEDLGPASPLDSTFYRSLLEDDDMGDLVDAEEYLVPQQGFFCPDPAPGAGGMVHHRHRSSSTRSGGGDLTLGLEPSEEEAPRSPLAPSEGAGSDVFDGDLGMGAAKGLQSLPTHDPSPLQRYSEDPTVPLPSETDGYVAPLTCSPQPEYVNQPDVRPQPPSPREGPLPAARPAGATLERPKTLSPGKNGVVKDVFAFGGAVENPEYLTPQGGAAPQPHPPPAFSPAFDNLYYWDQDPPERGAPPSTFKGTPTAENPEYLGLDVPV
T5 sequence (P04626 23-1255, one chain of several): as above

N=C(N)NCCC[C@@H]1NC(=O)[C@H]2CCCN2C(=O)[C@@H]2CCCN2C(=O)[C@H](CCCNC(=N)N)NC(=O)C[C@H](c2cccc3ccccc23)NC(=O)[C@H](Cc2ccccc2)NC(=O)[C@H](CC(=O)O)NC(=O)[C@H](CC(=O)O)NC(=O)[C@H](Cc2ccccc2)NC(=O)C[C@H](c2cccc3ccccc23)NC1=O [compound 18, Cyclo(1,10)P^1p^2R^3(R-Anapa)^4F^5D^6D^7F^8(R-Anapa)^9R^10] (HELM PEPTIDE1{P.[dP].R.[O=C(C[C@@H](N[*:1])c1cccc2ccccc12)[*:2]].F.D.D.F.[O=C(C[C@@H](N[*:1])c1cccc2ccccc12)[*:2]].R}$PEPTIDE1,PEPTIDE1,1:R1-10:R2$$$V2.0)
Activity in MCF-10A relative to Calu-3 (times less) ([1]; IC50 MCF-10A vs Calu-3): ~2000 times | Activity in MCF-10A relative to SKBR-3 (times less) ([1]; IC50 MCF-10A vs SKBR-3): ~200 times | Synergistic effect with erlotinib (isobologram) (MCF-7 cells; MCF-7, compound 18 plus erlotinib): no synergistic effect | IC50 (MCF-7 cells; breast cancer cells that do not overexpress HER2, 72 h): > 50000 nM | SPR binding to EGFR (EGFR): did not indicate any significant change in response | koff ([2]; SPR, 1:1 binding Langmuir fit): 5.97 s⁻¹ | kon ([2]; SPR, 1:1 binding Langmuir fit): 4.76e+07 M⁻¹ s⁻¹ | Kd ([2]; calculated from kon and koff): 125 nM | SPR binding to HER2 ECD ([2]; protein immobilized on CM5 chip, substance as analyte): concentration-dependent binding | SPR binding to HER3 (HER3): did not indicate any significant change in response | SPR binding to HER4 (HER4): did not indicate any significant change in response | SPR binding to HER2 domain IV (domain IV of HER2): concentration-dependent binding | Inhibition of EGFR:HER2 heterodimerization (PLA) [3]: inhibits both EGFR:HER2 and HER2:HER3 dimerization | Inhibition of HER2:HER3 heterodimerization (PLA) [4]: inhibits heterodimerization in a concentration-dependent manner | IC50 (SKBR-3 cells; read-out: Antiproliferative activity (IC50 µM) SKBR-3 cells, Table 2, compound 18 and diastereoisomers): 0.194 ± 0.046 µM | IC50 (SKBR-3 cells; read-out: IC50 SKBR-3(+), HER2-overexpressing breast cancer cells, 72 h): 0.194 ± 0.046 µM | IC50 (SKOV-3 cells): 853 ± 102 nM
